# From patent US20160214958A1, “COMPOUNDS AND USE FOR TREATING CANCER” (GLIONOVA AB, priority 2013, published 2016)
# Where two headings read alike, the source gives them in different places.
# Assays:
# U3013MG GSC xenograft = experiment: Mouse Kaplan-Meier experiment, oral S10 at terminal stage of GBM; assay type: in vivo, NOD-SCID mice; conditions: 20 mg/kg per orally for five days
# Protocol: The bioavailability of S10 by oral and intraperitoneal injection in vivo was investigated. […] In a second delivery regimen, treatment was performed per orally (20 mg/kg) twice daily for five days. Treatment started at a terminal stage of GBM, i.e. six weeks after engraftment of U3013M GSCs and median survival from the time of treatment initiation and the Hazard ratio were scored.
# For Kaplan-Meier experiments, 100,000 GSC from U3013MG we injected into NOD-SCID mice as described above. Mice were then monitored for 6 weeks and then oral administration regiment was started. Mice were either given 200 μl of water or S10 in water corresponding to 20 mg/kg, via oral gavage. A total of nine animals were taken for each treatment (control, S10). The oral administration was followed once a day for five days following which the administration was stopped and the animals monitored till they reach the humane end point, after which they were sacrificed.
# [1] = test system: S10-resistant GSCs (U3013MG); experiment: Viability of S10-resistant GSCs surviving the shRNA screen; assay type: cell-based; conditions: Homo sapiens, cells surviving 14 μM S10 after shRNA library transduction, read-out: EC50 on GSC viability, S10-resistant GSCs
# Source text: A genome wide screen with shRNA libraries was used to identify pathways for S10 induced macropinocytosis. The approach was based on the idea that depleting a key factor in the pathway should render GSCs refractive to S10 induced death. Three different DECIPHER pooled lentiviral shRNA libraries consisting of 82500 shRNA covering 15377 genes grouped into Human Module 1 (genes associated with various signaling pathways), Human Module 2 (disease-associated genes) and Human Module 3 (genes associated with cell surface, extracellular and DNA binding), were used to transduce U3013MG GSCs. Four days later, 14 μM S10 was added for one day after which cells were cultured in standard medium for five month. Surviving cells were thereafter dissociated and further expanded. […] Phospho-MKK4 increased within 5 min of S10 exposure and remained at similar levels for at least 26 hrs of stimulation. Abrogation of MAP2K4 activity by five independent shRNAs led to marked increase of the EC50 viability value of S10-treated GSC. […] MKK4 was thereafter confirmed as a required protein for S10 induced macropinocytosis. […] Thus, the distinctive feature of susceptibility to macropinocytosis and death in GSCs require MKK4 activity.
# GSCs grown to 70% confluency were transduced by DECIPHER pooled lentiviral shRNA libraries consisting of Human Module 1, 2 and 3 using earlier described protocols (Pasini et al., 2008). […]
# [2] = Tolerance of oral dosing of S10; assay type: in vivo; conditions: 20 mg/kg/day oral gavage for one week, weight loss and signs of distress
# [3] = test system: ex-vivo adult zebrafish hearts; experiment: Cardiotoxicity, ex vivo adult zebrafish hearts; conditions: frequency spectral analysis of heart beating
# Protocol: A xenotransplantation model for GBM in zebrafish was developed to test the capacity of the 17 hits to prevent tumor formation in vivo. Three thousand U3013MG GSCs labeled with cell tracker red were injected intracranially into the ventricle of 48-52 hpf larvae. Each of the 17 hits were administered to the egg water at the lowest effective in vitro cytotoxic concentration identified and tumor development assessed 10 days later. This assay allowed rapid evaluation of the compounds in an in vivo setup, features such as the acute/chronic toxicity effect of the compounds on zebrafish and the transplanted cells, transplanted cell proliferation and migration of cells into brain parenchyma, compounds penetrance into the zebrafish tissue were all parallely evaluated. […] Cardiovascular toxicity was assessed using a recently established model based on frequency spectral analysis of heart beating in ex-vivo adult zebrafish hearts (Kitambi et al., (2012) BMC Physiol. 12, 3).
# A zebrafish model was used to assess the developmental and cardiac toxicity of advanced hits from the screen. […] The embryos were monitored every day and allowed to grow for 5 days before the phenotype was recorded. […] Adult hearts from male zebrafish were exposed to compounds and the effect on the heart beat was recorded and analysed using developed methods (Kitambi et al., (2012) BMC Physiol. 12, 3).
# [4] = Pharmacokinetic evaluation of Vacquinol-1 stereoisomers, plasma and brain; assay type: in vivo, NMRI (SR/RS) or BALB/c (Vrac) mice; conditions: for Cmax Brain / tlast Brain / tlast Plasma / AUC(0-t) / half-life / Tmax / Cmax: mice
# Protocol: The pharmacokinetics of Vacquinol-1 (racemic), Vacquinol-1RS and Vacquinol-1SR, were determined in NMRI (SR/RS) or BALB/c (Vrac) mice following single intravenous (i.v.) or per oral (p.o) administration of 2 or 20 mg/kg Vacquinol-1, respectively. Blood and brain samples were taken from animals at the following nominal time points: 15, 30, and 60 minutes, and 2, 4, 6, 8, 24, 48, 72 and 144 hours after dosing (n=3/time-point). Bioanalytical quantification of Vacquinol-1 was analysed in plasma and brain samples by a UPLC-MS/MS.
# Pharmacokinetics were calculated by non-compartmental analysis (NCA) from composite (mean) profiles. Nominal sampling times and dose levels have been used for the NCA calculations.
# [5] = test system: glioma stem cell line U3013; experiment: In vitro cancer cell and CSC viability assay (ATP quantification, CellTiterGlo); assay type: cell-based; conditions: Homo sapiens; 3000 cells/cm2, after 24 hours; read-out: EC50, viability of GSCs
smiles,measurement,setting,value
"OC(c1cc(-c2ccc(Cl)cc2)nc2ccccc12)C1CCCCN1 (racemic) [Compound S10, (2-(4-chlorophenyl)quinolin-4-yl)(piperidin-2-yl)methanol]",Hazard ratio (rate of death untreated vs S10 treated group),U3013MG GSC xenograft; comparison of the two survival curves,2.293
same,median survival from the time of treatment initiation,"U3013MG GSC xenograft; start six weeks after engraftment, n=9, DMSO treated animals 7 days",12 days
same,EC50,[1],14.3 ± 1.16 µM
same,tolerance of oral dosing,[2],well tolerated
same,"cardiac toxicity, heart beating",[3],small or no effects
same,Cmax Brain,[4]; 2 mg/kg i.v.,514 ng/mL
same,tlast Brain,[4]; 2 mg/kg i.v.,144 h
same,tlast Plasma,[4]; 2 mg/kg i.v.,144 h
same,Cmax Brain,[4]; 20 mg/kg p.o.,1860 ng/mL
same,tlast Brain,[4]; 20 mg/kg p.o.,144 h
same,tlast Plasma,[4]; 20 mg/kg p.o.,144 h
same,Kp,"[4]; NMRI (single stereoisomers SR/RS), BALB/c (racemate), mouse, brain and plasma, 20 mg/kg, after oral dosing, read-out: relative brain/plasma exposure ratio (AUClast(brain)/AUClast(plasma))",0.6
same,AUC(0-t),"[4]; NMRI (single stereoisomers SR/RS), BALB/c (racemate), mouse, brain, iv, 2 mg/kg i.v., read-out: AUClast Brain",20.4 µg·h/mL
same,half-life,"[4]; NMRI (single stereoisomers SR/RS), BALB/c (racemate), mouse, brain, iv, 2 mg/kg i.v., read-out: t1/2 Brain (converted)",63 h
same,AUC(0-t),"[4]; NMRI (single stereoisomers SR/RS), BALB/c (racemate), mouse, brain, po, 20 mg/kg p.o., read-out: AUClast Brain",167 µg·h/mL
same,Tmax,"[4]; NMRI (single stereoisomers SR/RS), BALB/c (racemate), mouse, brain, po, 20 mg/kg p.o., read-out: tmax Brain",48 h
same,Cmax,"[4]; NMRI (single stereoisomers SR/RS), BALB/c (racemate), mouse, plasma, iv, 2 mg/kg i.v.",467 ng/mL
same,AUC(0-t),"[4]; NMRI (single stereoisomers SR/RS), BALB/c (racemate), mouse, plasma, iv, 2 mg/kg i.v., read-out: AUClast Plasma",64.5 µg·h/mL
same,half-life,"[4]; NMRI (single stereoisomers SR/RS), BALB/c (racemate), mouse, plasma, iv, 2 mg/kg i.v., read-out: t1/2 Plasma (converted)",52 h
same,Cmax,"[4]; NMRI (single stereoisomers SR/RS), BALB/c (racemate), mouse, plasma, po, 20 mg/kg p.o.",3280 ng/mL
same,AUC(0-t),"[4]; NMRI (single stereoisomers SR/RS), BALB/c (racemate), mouse, plasma, po, 20 mg/kg p.o., read-out: AUClast Plasma",292 µg·h/mL
same,Tmax,"[4]; NMRI (single stereoisomers SR/RS), BALB/c (racemate), mouse, plasma, po, 20 mg/kg p.o., read-out: tmax Plasma",24 h
same,Cmax exposures ratio (Cmax(brain)/Cmax(plasma)),[4]; after oral dosing,0.6
same,EC50,[5],2.36 µM
